From ChEMBL document CHEMBL4350965 (J Med Chem, 2019)
Values belong to the molecule of their own block, whether it stands above or below them.

Key:
[1] = Stability in rat liver microsomes assessed as parent compound remaining at 1 uM measured after 30 mins in presence of NADPH generating system
[2] = Stability in human liver microsomes assessed as parent compound remaining at 1 uM measured after 30 mins in presence of NADPH generating system
[3] = target: T1, PI3K p110 beta/p85 alpha (Homo sapiens, UniProt P42338); test: Inhibition of N-terminal His6-tagged recombinant full length human p110beta/untagged recombinant full length human p85alpha expressed in baculovirus infected Sf21 insect cells at 1 uM using PIP2 as substrate measured after 80 mins by transcreener fluorescence polarization assay relative to control
T1 sequence (P27986 whole entry): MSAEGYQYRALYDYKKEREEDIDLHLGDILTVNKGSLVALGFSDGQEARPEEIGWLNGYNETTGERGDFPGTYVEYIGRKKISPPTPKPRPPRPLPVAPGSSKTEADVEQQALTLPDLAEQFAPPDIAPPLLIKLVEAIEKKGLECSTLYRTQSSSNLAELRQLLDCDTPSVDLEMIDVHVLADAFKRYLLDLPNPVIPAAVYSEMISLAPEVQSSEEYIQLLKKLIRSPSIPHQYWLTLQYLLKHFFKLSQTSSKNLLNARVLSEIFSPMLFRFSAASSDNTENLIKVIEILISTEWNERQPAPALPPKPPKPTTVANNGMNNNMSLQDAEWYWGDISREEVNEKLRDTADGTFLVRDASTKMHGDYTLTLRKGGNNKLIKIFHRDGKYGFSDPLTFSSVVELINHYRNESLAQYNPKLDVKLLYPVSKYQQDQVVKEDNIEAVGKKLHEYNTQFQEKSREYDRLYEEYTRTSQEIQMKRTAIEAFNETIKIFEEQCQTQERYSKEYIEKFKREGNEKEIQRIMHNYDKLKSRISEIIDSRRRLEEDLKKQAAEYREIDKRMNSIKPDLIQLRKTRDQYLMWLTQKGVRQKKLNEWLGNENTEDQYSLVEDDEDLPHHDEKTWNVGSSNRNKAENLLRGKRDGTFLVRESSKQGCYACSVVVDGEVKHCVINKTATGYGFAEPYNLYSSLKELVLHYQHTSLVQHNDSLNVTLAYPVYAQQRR
T1 sequence (P42338 whole entry): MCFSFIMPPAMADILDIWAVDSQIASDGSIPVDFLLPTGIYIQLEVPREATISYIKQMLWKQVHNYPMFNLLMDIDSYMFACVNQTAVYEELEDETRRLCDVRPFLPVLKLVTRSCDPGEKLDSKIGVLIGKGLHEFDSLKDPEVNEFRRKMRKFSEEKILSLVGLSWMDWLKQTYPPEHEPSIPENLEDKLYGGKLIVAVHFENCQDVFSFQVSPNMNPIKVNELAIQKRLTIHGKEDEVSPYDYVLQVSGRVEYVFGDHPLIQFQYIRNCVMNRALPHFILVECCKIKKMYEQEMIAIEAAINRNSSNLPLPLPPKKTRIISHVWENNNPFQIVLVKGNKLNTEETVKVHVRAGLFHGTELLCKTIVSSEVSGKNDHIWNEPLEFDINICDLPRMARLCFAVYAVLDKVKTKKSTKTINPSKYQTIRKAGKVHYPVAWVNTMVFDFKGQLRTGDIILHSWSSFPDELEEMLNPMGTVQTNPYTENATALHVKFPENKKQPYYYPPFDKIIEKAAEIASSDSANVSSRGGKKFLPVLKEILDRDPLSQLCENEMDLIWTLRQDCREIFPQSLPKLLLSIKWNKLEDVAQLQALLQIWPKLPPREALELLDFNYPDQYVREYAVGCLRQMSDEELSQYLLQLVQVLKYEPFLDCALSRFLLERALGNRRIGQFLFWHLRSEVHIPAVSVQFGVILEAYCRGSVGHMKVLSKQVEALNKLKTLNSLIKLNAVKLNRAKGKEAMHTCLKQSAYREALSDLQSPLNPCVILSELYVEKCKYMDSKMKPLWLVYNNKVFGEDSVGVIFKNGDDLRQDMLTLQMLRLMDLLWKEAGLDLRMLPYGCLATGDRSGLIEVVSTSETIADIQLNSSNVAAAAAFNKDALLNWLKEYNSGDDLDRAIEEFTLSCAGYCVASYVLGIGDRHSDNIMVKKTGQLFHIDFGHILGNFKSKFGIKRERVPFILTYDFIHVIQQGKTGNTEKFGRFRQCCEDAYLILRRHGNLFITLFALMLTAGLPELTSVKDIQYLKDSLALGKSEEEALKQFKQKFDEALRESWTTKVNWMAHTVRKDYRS

[4] = target: PI3-kinase p110-alpha/p85-alpha (Homo sapiens, UniProt P42336); test: Inhibition of recombinant human full-length N-terminal His-tagged PI3K p110alpha/p85alpha expressed in baculovirus expression system at 1 uM using PIP2 as substrate measured after 80 mins by transcreener fluorescence polarization assay relative to control
PI3-kinase p110-alpha/p85-alpha, sequence (P27986 whole entry, canonical isoform): as the sequence (P27986 whole entry) above
PI3-kinase p110-alpha/p85-alpha, sequence (P42336 whole entry, canonical isoform): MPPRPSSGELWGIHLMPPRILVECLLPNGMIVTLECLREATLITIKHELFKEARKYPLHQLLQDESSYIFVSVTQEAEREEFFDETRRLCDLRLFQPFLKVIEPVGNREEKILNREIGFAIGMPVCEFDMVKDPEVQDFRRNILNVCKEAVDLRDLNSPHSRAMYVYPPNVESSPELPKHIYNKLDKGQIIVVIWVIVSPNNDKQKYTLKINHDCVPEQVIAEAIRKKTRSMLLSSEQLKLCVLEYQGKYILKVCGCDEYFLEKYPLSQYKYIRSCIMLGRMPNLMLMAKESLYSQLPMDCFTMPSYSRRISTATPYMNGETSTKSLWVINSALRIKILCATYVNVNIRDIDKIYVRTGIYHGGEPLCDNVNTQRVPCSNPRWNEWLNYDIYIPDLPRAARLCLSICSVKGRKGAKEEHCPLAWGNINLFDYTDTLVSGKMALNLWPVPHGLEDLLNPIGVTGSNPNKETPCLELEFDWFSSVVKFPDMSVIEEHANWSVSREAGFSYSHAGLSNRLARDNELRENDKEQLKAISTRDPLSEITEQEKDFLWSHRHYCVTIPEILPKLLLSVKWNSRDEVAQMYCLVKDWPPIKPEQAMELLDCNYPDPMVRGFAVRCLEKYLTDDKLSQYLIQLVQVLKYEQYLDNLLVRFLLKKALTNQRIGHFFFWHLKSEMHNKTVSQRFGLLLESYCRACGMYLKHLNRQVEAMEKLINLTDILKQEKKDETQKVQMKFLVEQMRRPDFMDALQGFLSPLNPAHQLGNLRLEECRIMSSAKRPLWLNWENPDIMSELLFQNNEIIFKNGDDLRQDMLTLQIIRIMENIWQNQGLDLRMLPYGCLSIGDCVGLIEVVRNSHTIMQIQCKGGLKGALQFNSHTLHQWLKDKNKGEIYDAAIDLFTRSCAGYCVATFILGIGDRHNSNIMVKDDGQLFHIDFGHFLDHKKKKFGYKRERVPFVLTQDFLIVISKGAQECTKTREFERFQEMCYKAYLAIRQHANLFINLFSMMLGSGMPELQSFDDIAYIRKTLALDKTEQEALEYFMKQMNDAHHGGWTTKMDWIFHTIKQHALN

[5] = target: T2, Phosphatidylinositol 4,5-bisphosphate 3-kinase catalytic subunit delta isoform (Homo sapiens, UniProt O00329); test: Inhibition of PI3Kdelta in human Ramos cells assessed as reduction in antihuman IgM-stimulated AKT phosphorylation at Ser473 residue preincubated for 60 mins followed by antihuman IgM stimulation and measured after 15 mins; format: cell-based
T2 sequence (O00329 whole entry): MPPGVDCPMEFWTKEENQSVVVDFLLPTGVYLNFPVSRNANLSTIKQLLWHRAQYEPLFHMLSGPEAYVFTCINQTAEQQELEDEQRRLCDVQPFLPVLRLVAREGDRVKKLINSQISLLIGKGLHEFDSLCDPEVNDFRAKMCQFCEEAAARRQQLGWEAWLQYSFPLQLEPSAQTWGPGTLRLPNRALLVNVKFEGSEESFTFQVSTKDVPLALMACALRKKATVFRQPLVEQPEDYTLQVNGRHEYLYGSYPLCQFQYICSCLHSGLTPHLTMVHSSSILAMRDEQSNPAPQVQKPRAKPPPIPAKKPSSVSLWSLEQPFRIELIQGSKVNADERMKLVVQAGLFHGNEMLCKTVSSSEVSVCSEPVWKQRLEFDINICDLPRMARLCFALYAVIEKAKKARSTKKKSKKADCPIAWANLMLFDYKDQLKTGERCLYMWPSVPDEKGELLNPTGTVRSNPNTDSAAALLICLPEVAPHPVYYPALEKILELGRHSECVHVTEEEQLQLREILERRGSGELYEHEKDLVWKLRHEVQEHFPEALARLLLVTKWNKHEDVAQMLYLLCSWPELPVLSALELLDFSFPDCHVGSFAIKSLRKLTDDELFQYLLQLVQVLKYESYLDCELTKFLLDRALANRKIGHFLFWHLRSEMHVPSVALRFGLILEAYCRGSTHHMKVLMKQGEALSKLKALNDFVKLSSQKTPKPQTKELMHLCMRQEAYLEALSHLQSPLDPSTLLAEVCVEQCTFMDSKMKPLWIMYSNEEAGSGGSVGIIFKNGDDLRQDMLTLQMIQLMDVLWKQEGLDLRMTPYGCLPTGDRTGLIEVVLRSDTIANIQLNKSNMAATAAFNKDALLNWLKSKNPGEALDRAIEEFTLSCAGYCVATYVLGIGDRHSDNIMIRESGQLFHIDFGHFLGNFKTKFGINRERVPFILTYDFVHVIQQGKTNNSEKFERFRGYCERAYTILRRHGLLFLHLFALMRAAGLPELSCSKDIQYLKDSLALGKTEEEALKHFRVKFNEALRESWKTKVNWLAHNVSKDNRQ

[6] = Inhibition of PI3Kgamma in […] RAW264.7 cells assessed as reduction in C5a-stimulated AKT phosphorylation at Ser473 residue preincubated for 30 mins followed by C5a-stimulation and measured after 5 mins; format: cell-based
[7] = target: Phosphatidylinositol 4,5-bisphosphate 3-kinase catalytic subunit gamma isoform (Homo sapiens, UniProt P48736)
Phosphatidylinositol 4,5-bisphosphate 3-kinase catalytic subunit gamma isoform, sequence (P48736 whole entry, canonical isoform): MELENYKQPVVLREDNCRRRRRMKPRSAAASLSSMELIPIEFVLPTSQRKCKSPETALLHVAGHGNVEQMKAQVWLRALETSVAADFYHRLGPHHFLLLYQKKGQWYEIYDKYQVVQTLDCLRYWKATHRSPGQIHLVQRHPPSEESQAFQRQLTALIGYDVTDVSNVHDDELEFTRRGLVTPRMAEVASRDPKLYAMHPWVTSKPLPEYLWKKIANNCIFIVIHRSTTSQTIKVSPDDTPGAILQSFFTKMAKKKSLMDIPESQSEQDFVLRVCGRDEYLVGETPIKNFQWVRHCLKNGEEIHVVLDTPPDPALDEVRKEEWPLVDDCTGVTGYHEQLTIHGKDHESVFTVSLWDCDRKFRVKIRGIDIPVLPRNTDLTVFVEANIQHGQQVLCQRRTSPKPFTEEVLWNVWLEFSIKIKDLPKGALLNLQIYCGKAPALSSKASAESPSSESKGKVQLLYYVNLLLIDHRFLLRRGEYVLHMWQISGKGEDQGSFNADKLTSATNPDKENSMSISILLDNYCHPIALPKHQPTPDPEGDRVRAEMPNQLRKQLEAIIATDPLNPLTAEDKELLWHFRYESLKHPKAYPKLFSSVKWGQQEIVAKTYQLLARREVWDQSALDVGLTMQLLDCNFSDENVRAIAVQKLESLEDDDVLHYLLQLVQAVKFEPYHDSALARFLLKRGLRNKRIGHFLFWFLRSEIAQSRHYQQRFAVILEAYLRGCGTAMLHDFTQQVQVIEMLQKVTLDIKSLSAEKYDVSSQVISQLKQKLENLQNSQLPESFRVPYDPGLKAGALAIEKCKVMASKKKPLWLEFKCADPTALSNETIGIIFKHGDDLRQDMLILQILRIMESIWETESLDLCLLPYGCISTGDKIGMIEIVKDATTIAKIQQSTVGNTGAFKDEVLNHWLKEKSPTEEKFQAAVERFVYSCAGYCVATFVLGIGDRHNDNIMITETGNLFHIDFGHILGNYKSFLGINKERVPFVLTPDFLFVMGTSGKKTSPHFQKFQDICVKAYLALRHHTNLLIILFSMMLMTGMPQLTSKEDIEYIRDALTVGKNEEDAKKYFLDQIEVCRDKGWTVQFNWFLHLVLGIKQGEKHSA
Description: Inhibition of recombinant human full-length His-tagged PI3K p110gamma expressed in baculovirus expression system using PIP2 as substrate measured after 80 mins by transcreener fluorescence polarization assay

[8] = target: T1, PI3K p110 beta/p85 alpha; test: Inhibition of N-terminal His6-tagged recombinant full length human p110beta/untagged recombinant full length human p85alpha expressed in baculovirus infected Sf21 insect cells using PIP2 as substrate measured after 80 mins by transcreener fluorescence polarization assay
[9] = target: PI3-kinase p110-delta/p85-alpha (Homo sapiens, UniProt O00329); test: biochemical
PI3-kinase p110-delta/p85-alpha, sequence (P27986 whole entry, one chain of several): as the sequence (P27986 whole entry) above
Description: Inhibition of N-terminal His6-tagged recombinant full length human p110delta/untagged recombinant full length human p85alpha expressed in baculovirus infected Sf21 insect cells using PIP2 as substrate measured after 80 mins by transcreener fluorescence polarization assay

[10] = AUC in Sprague-Dawley rat at 10 mg/kg, po by LC-MS/MS analysis; format: ADME, organism-based; conditions: in vivo
[11] = system: Rattus norvegicus; test: Inhibition of KC/GRO-induced neutrophil migration in Wistar rat air pouch model at 10 mg/kg, po pretreated for 0.5 hrs followed by KC/GRO-stimulation and measured after 4 hrs by flow cytometry relative to control; format: functional
[12] = target: T2, Phosphatidylinositol 4,5-bisphosphate 3-kinase catalytic subunit delta isoform; test: Inhibition of PI3Kdelta in human whole blood assessed as reduction in fMLP-stimulated CD63 expression in basophils preincubated for 30 mins followed by fMLP stimulation; format: tissue-based
[13] = Inhibition of PI3Kdelta in rat whole blood assessed as reduction in anti-IgD-stimulated CD86 expression on B-cells preincubated for 60 mins followed by anti-IgD stimulation and measured after overnight incubation by flow cytometry; format: tissue-based
[14] = target: T2, Phosphatidylinositol 4,5-bisphosphate 3-kinase catalytic subunit delta isoform; test: Inhibition of PI3Kdelta in human whole blood assessed as reduction in anti-IgM-stimulated CD69 expression on B-cells preincubated for 60 mins followed by anti-IgM stimulation and measured after overnight incubation by flow cytometry; format: tissue-based
[15] = Clearance in Beagle dog at 1 mg/kg, iv by LC-MS/MS analysis; format: ADME, organism-based, Canis lupus familiaris; conditions: in vivo
[16] = AUC in Beagle dog at 5 mg/kg, po by LC-MS/MS analysis; format: ADME, organism-based, Canis lupus familiaris; conditions: in vivo
[17] = system: Rattus norvegicus; test: Ex vivo inhibition of anti-IgD-induced B cell activation in Wistar rat assessed as CD86 expression at 1 mg/kg, po pretreated for 2 hrs followed by anti-IgD stimulation and measured after overnight incubation by flow cytometry relative to control; format: functional
[18] = Half life in Sprague-Dawley rat at 2.5 mg/kg, iv by LC-MS/MS analysis; format: ADME, organism-based; conditions: in vivo
[19] = AUC in Beagle dog at 1 mg/kg, iv by LC-MS/MS analysis; format: ADME, organism-based, Canis lupus familiaris; conditions: in vivo
[20] = Volume of distribution at steady state in Beagle dog at 1 mg/kg, iv by LC-MS/MS analysis; format: ADME, organism-based, Canis lupus familiaris; conditions: in vivo, read-out: Vdss
[21] = system: Rattus norvegicus; test: Antiarthritic activity in po dosed type2 collagen-induced Wistar rat arthritis model assessed as reduction in hind paw volume administered twice daily for 7 days and measured daily during compound dosing by plethysmometry; format: functional; conditions: 168 h
[22] = Oral bioavailability in Sprague-Dawley rat at 10 mg/kg by LC-MS/MS analysis; format: ADME, organism-based; conditions: in vivo
[23] = Oral bioavailability in Beagle dog at 5 mg/kg by LC-MS/MS analysis; format: ADME, organism-based, Canis lupus familiaris; conditions: in vivo
[24] = Half life in Beagle dog at 1 mg/kg, iv by LC-MS/MS analysis; format: ADME, organism-based, Canis lupus familiaris; conditions: in vivo
[25] = AUC in Sprague-Dawley rat at 2.5 mg/kg, iv by LC-MS/MS analysis; format: ADME, organism-based; conditions: in vivo
[26] = Clearance in Sprague-Dawley rat at 2.5 mg/kg, iv by LC-MS/MS analysis; format: ADME, organism-based; conditions: in vivo
[27] = Cmax in Sprague-Dawley rat at 10 mg/kg, po by LC-MS/MS analysis; format: ADME, organism-based; design: dose 10 mg/kg, route oral; conditions: in vivo
[28] = Cmax in Beagle dog at 5 mg/kg, po by LC-MS/MS analysis; format: ADME, organism-based, Canis lupus familiaris; design: dose 5 mg/kg, route oral; conditions: in vivo

remaining at 0.5 h, 1 µM [1]: 78.5%
inhibition at 1 µM [3]: 18.5%
inhibition at 1 µM [4]: -1.5%
remaining at 0.5 h, 1 µM [2]: 95.4%
SMILES: O=c1c2c(Cl)ccn2nc([C@@H]2CCN2c2ncnc3[nH]cnc23)n1-c1ccccc1

IC50 [5]: 21 nM
IC50 [6]: 152 nM
IC50 [7]: 34 nM
remaining at 0.5 h, 1 µM [1]: 63.9%
IC50 [8]: 945 nM
IC50 [9]: 13 nM
inhibition at 1 µM [4]: -0.3%
remaining at 0.5 h, 1 µM [2]: 89.8%
SMILES: N#Cc1c[nH]c2ncnc(N3CC[C@H]3c3nn4ccc(Cl)c4c(=O)n3-c3ccccc3)c12

remaining at 0.5 h, 1 µM [1]: 41.4%
remaining at 0.5 h, 1 µM [2]: 17.9%
SMILES: CC(=O)c1c[nH]c2ncnc(N3CCC[C@H]3c3nn4ccc(Cl)c4c(=O)n3-c3ccccc3)c12

IC50 [5]: 21 nM
IC50 [6]: 142 nM
remaining at 0.5 h, 1 µM [1]: 77.2%
inhibition at 1 µM [3]: 45.9%
inhibition at 1 µM [4]: 8.4%
remaining at 0.5 h, 1 µM [2]: 83%
SMILES: CC(=O)c1c[nH]c2ncnc(N3CC[C@H]3c3nn4ccc(Cl)c4c(=O)n3-c3ccccc3)c12

remaining at 0.5 h, 1 µM [1]: 38.7%
SMILES: N#Cc1c[nH]c2ncnc(N3CCC[C@H]3c3nn4ccc(Cl)c4c(=O)n3-c3ccccc3)c12

The next lines start with the molecule.

SMILES: O=c1c2c(Cl)ccn2nc([C@@H]2CCCN2c2ncnc3[nH]cnc23)n1-c1ccccc1
remaining at 0.5 h, 1 µM [1]: 38.8%
remaining at 0.5 h, 1 µM [2]: 72.6%

SMILES: O=c1c2cccn2nc([C@@H]2CCCN2c2ncnc3[nH]cnc23)n1-c1ccccc1
remaining at 0.5 h, 1 µM [1]: 44.3%
inhibition at 1 µM [3]: 17.4%

SMILES: O=c1c2c(F)ccn2nc([C@@H]2CCCN2c2ncnc3[nH]cnc23)n1-c1ccccc1
remaining at 0.5 h, 1 µM [1]: 51.8%
inhibition at 1 µM [3]: 52.9%

SMILES: CC(=O)c1c[nH]c2ncnc(N3CCC[C@H]3c3nn4ccc(F)c4c(=O)n3-c3ccccc3)c12
IC50 [5]: 5 nM
IC50 [6]: 42 nM
remaining at 0.5 h, 1 µM [1]: 26.1%
remaining at 0.5 h, 1 µM [2]: 25.1%

SMILES: N#Cc1cnc(N)nc1N1CC[C@H]1c1nn2ccc(Cl)c2c(=O)n1-c1ccccc1
IC50 [5]: 16 nM
IC50 [6]: 241 nM
remaining at 0.5 h, 1 µM [1]: 77.5%
inhibition at 1 µM [3]: 37%
inhibition at 1 µM [4]: < 50%
remaining at 0.5 h, 1 µM [2]: 71.2%

SMILES: CC(=O)c1cnc(N)nc1N1CC[C@H]1c1nn2ccc(Cl)c2c(=O)n1-c1ccccc1
AUC [10]: 14300 ng·h/mL
inhibition in vivo at 10 mg/kg [11]: 87.9%
IC50 [12]: 337 nM
IC50 [13]: 44 nM
IC50 [14]: 63 nM
clearance [15]: 5.4 mL/min/kg
IC50 [8]: 590 nM
AUC [16]: 13100 ng·h/mL
inhibition in vivo at 1 mg/kg [17]: 88.3%
half-life [18]: 1.5 h
AUC [19]: 3260 ng·h/mL
Vd [20]: 1.7 L/kg
ED50 [21]: 0.25 mg/kg
bioavailability [22]: 108%
IC50 [9]: 5 nM
bioavailability [23]: 82.4%
half-life [24]: 6.3 h
AUC [25]: 3270 ng·h/mL
clearance [26]: 12.7 mL/min/kg
Cmax [27]: 2730 ng/mL
Cmax [28]: 2530 ng/mL
